Experimental data as given in patent US8674118B2, “Compounds and methods for the treatment or prevention of flavivirus infections” (priority 2005, dated 2014).
Where a name gives a salt, the structure may show the parent alone. Read-outs that look alike come from different tables or passages of the source.

Tested on: HCV RNA replication (replicon cell lines Huh-7, 5.2 and ET)
Assay: Cell-Based Luciferase Reporter HCV RNA Replication Assay
[1] = Hepatitis C virus, Huh-7, 96 h, Huh-7, 5.2 or ET replicon cells, luciferase counts after 4 days incubation, read-out: IC50
[2] = Huh-7, 5.2 or ET replicon cells, luciferase counts after 4 days incubation, read-out: IC50

Row | Structure (SMILES) | IC50 [1] [µM] | other results
1 | CO[C@H]1CC[C@H](N(c2cc(C3=CCCCC3)sc2C(=O)O)C(=O)[C@H]2CC[C@H](C)CC2)CC1 [Compound 12, 5-Cyclohex-1-enyl-3-[(trans-4-methoxy-cyclohexyl)-(trans-4-methyl-cyclohexanecarbonyl)-amino]-thiophene-2-carboxylic acid] | < 5 | –
2 | CC1CCC(C(=O)N(c2cc(C3=CCCCC3)sc2C(=O)O)C2CCC3(CC2)CNC(=O)C3)CC1 (stereo not drawn) [Compound 80, 5-cyclohex-1-enyl-3-[(trans-4-methyl-cyclohexanecarbonyl)-cis-(3-oxo-2-aza-spiro[4.5]dec-8-yl)-amino]-thiophene-2-carboxylic acid] | < 5 | –
3 | CS(=O)(=O)N1CCC(N(c2cc(C3=CCCCC3)sc2C(=O)O)C(=O)[C@H]2CC[C@H](C)CC2)CC1 [Compound 101, 5-cyclohex-1-enyl-3-[(1-methanesulfonyl-piperidin-4-yl)-(trans-4-methyl-cyclohexanecarbonyl)-amino]-thiophene-2-carboxylic acid] | < 5 | –
4 | COCOC1CCC(N(C(=O)C2CCC(C)CC2)c2cc(C3=CCC(C)(C)CC3)sc2C(=O)O)CC1 (stereo not drawn) [Compound 114, 5-(4,4-dimethyl-cyclohex-1-enyl)-3-[(4-trans-methoxymethoxy-cyclohexyl)-(4-trans-methyl-cyclohexanecarbonyl)-amino]-thiophene-2-carboxylic acid] | < 5 | –
5 | CC1=CCCCC1c1cc(N(C(=O)C2CCC(C)CC2)C2CCC(=O)CC2)c(C(=O)O)s1 (stereo not drawn) [Compound 58, RS-3-[(4-trans-methyl-cyclohexanecarbonyl)-(4-oxo-cyclohexyl)-amino]-5-(2-methyl-cyclohex-2-enyl)-thiophene-2-carboxylic acid] | 5 to 25 | –
6 | CO[C@H]1CC[C@H](N(c2cc(C3=C(F)CCCC3F)sc2C(=O)O)C(=O)[C@H]2CC[C@H](C)CC2)CC1 (relative stereo) [Compound 119, 5-(2,6-difluoro-cyclohex-1-enyl)-3-[(trans-4-methoxy-cyclohexyl)-(trans-4-methyl-cyclohexanecarbonyl)-amino]-thiophene-2-carboxylic acid] | < 5 | –
7 | CC1(C)CCC(c2cc(N(C(=O)[C@H]3CC[C@H](C)CC3)[C@H]3CC[C@H](O)CC3)c(C(=O)O)s2)CC1 [Compound 64, 5-(4,4-dimethyl-cyclohexyl)-3-[(trans-4-hydroxy-cyclohexyl)-(trans-4-methyl-cyclohexanecarbonyl)-amino]-thiophene-2-carboxylic acid] | < 5 | –
8 | CO[C@H]1CC[C@H](N(c2cc(C3CCC(C(F)(F)F)CC3)sc2C(=O)O)C(=O)[C@H]2CC[C@H](C)CC2)CC1 (relative stereo) [Compound 108, 3-[(trans-4-methoxy-cyclohexyl)-(trans-4-methyl-cyclohexanecarbonyl)-amino]-5-(4-trifluoromethyl-cyclohexyl)-thiophene-2-carboxylic acid] | < 5 | –
9 | CC1CCC(C(=O)N(c2cc(C3=CCC(C)(C)CC3)sc2C(=O)O)C2CCC(O)CC2)CC1 (stereo not drawn) [Compound 35, 5-(4,4-dimethyl-cyclohex-1-enyl)-3-[(4-trans-4-hydroxy-cyclohexyl)-(trans-4-methyl-cyclohexanecarbonyl)-amino]-thiophene-2-carboxylic acid] | < 5 | –
10 | CC1CCC(C(=O)N(c2cc(C3=CCCCC3)sc2C(=O)O)C2CC[S+]([O-])CC2)CC1 (stereo not drawn) [Compound 63, 5-cyclohex-1-enyl-3-[(trans-4-methyl-cyclohexanecarbonyl)-(1-oxo-hexahydro-1-thiopyran-4-yl)-amino]-thiophene-2-carboxylic acid] | < 5 | –
11 | COC1CCC(N(C(=O)C2CCC(C)CC2)c2cc(C3CCC(=O)CC3)sc2C(=O)O)CC1 (stereo not drawn) [Compound 113, 3-[(4-trans-methoxy-cyclohexyl)-(4-trans-methyl-cyclohexanecarbonyl)-amino]-5-(4-oxo-cyclohexyl)-thiophene-2-carboxylic acid] | < 5 | –
12 | CC1CC=C(c2cc(N(C(=O)[C@H]3CC[C@H](C)CC3)[C@H]3CC[C@H](O)CC3)c(C(=O)O)s2)CC1 (relative stereo) [Compound 4, 3-[(trans-4-Hydroxy-cyclohexyl)-(trans-4-methyl-cyclohexanecarbonyl)-amino]-5-(4-methyl-cyclohex-1-enyl)-thiophene-2-carboxylic acid] | < 5 | –
13 | CC1CCC(C(=O)N(c2cc(C3=CCCCCC3)sc2C(=O)O)C2CCCCC2)CC1 (stereo not drawn) [Compound 46, 5-cyclohept-1-enyl-3-[cyclohexyl-(4-trans-methyl-cyclohexanecarbonyl)-amino]-thiophene-2-carboxylic acid] | < 5 | –
14 | CC1(C)CC=C(c2cc(N(C(=O)[C@H]3CC[C@H](C)CC3)[C@H]3CC[C@H](n4cncn4)CC3)c(C(=O)O)s2)CC1 [Compound 95, 5-(4,4-dimethyl-cyclohex-1-enyl)-3-[(trans-4-methyl-cyclohexanecarbonyl)-(trans-4-[1,2,4]triazol-1-yl-cyclohexyl)-amino]-thiophene-2-carboxylic acid; hydrochloride] | < 5 | –
15 | CC1CCC(C(=O)N(c2cc(C3=CCC4(CC3)OCCO4)sc2C(=O)O)C2CCC(O)CC2)CC1 (stereo not drawn) [Compound 14, 5-(1,4,Dioxa-spiro[4.5.]dec-7-en-8-yl)-3-[(trans-4-hydroxy-cyclohexyl)-(trans-4-methyl-cyclohexanecarbonyl)-amino]-thiophene-2-carboxylic acid] | < 5 | –
16 | C[C@H]1CC[C@H](C(=O)N(c2cc(C3=CCCCC3)sc2C(=O)O)[C@H]2CC[C@@H](C#N)CC2)CC1 [Compound 49, 3-[(cis-4-cyanocyclohexyl)-(trans-4-methylcyclohexanecarbonyl)-amino]-5-cyclohex-1-enyl-thiophene-2-carboxylic acid] | < 5 | –
17 | CO[C@H]1CC[C@H](N(c2cc(C3=CCC(C)(C)CC3)sc2C(=O)O)C(=O)[C@H]2CC[C@H](C)CC2)CC1 [Compound 20, 5-(4,4-Dimethyl-cyclohex-1-enyl)-3-[(trans-4-methoxy-cyclohexyl)-(trans-4-methyl-cyclohexanecarbonyl)-amino]-thiophene-2-carboxylic acid] | < 5 | –
18 | CC1(C)CCC(c2cc(N(C(=O)[C@H]3CC[C@H](C)CC3)[C@H]3CC[C@@H](n4cncn4)CC3)c(C(=O)O)s2)CC1 [Compound 117, 5-(4,4-dimethyl-cyclohexyl)-3-[(trans-4-methyl-cyclohexanecarbonyl)-(cis-4-[1,2,4]triazol-1-yl-cyclohexyl)-amino]-thiophene-2-carboxylic acid; hydrochloride] | < 5 | –
19 | CC1CCC(C(=O)N(c2cc(C3=CCCCC3)sc2C(=O)O)C2CCC3(CC2)CN(C)C(=O)N3C)CC1 (stereo not drawn) [Compound 74, 5-cyclohex-1-enyl-3-[trans-(1,3-dimethyl-2-oxo-1,3-diaza-spiro[4.5]dec-8-yl)-(trans-4-methyl-cyclohexanecarbonyl)-amino]-thiophene-2-carboxylic acid] | – | IC50 [2]: < 5 µM
20 | C[C@H]1CC[C@H](C(=O)N(c2cc(C3=CCCCC3)sc2C(=O)O)C2CCC(=O)CC2)CC1 [Compound 8, 5-Cyclohex-1-enyl-3-[(trans-4-methyl-cyclohexanecarbonyl)-(4-oxo-cyclohexyl)-amino]-thiophene-2-carboxylic acid] | < 5 | –
21 | C[C@H]1CC[C@H](C(=O)N(c2cc(C3=CCCCC3)sc2C(=O)O)[C@H]2CC[C@@H](O)CC2)CC1 [Compound 9, 5-Cyclohex-1-enyl-3-[(cis-4-hydroxy-cyclohexyl)-(trans-4-methyl-cyclohexanecarbonyl)-amino]-thiophene-2-carboxylic acid] | < 5 | –
22 | CO[C@H]1CC[C@H](N(c2cc(C3CCC(C)(C)CC3)sc2C(=O)O)C(=O)[C@H]2CC[C@H](C)CC2)CC1 [Compound 21, 5-(4,4-Dimethyl-cyclohexyl)-3-[(trans-4-methoxy-cyclohexyl)-(trans-4-methyl-cyclohexanecarbonyl)-amino]-thiophene-2-carboxylic acid] | < 5 | –
23 | C[C@H]1CC[C@H](C(=O)N(c2cc(C3=CCCCC3)sc2C(=O)O)[C@H]2CC[C@H](C#N)CC2)CC1 [Compound 50, 3-[(trans-4-cyanocyclohexyl)-(trans-4-methyl-cyclohexanecarbonyl)-amino]-5-cyclohex-1-enyl-thiophene-2-carboxylic acid] | < 5 | –
24 | C[C@H]1CC[C@H](C(=O)N(c2cc(C3=CCCCC3)sc2C(=O)O)[C@H]2CC[C@H](c3nnn[nH]3)CC2)CC1 [Compound 62, 5-cyclohex-1-enyl-3-{(trans-4-methyl-cyclohexanecarbonyl)-[trans-4-(1h-tetrazol-5-yl)-cyclohexyl]-amino}-thiophene-2-carboxylic acid] | < 5 | –
25 | CC1CCC(C(=O)N(c2cc(C3=CC4CCC3C4)sc2C(=O)O)C2CCC(O)CC2)CC1 (stereo not drawn) [Compound 28, 5-bicyclo[2.2.1]hept-2-en-2-yl-3-[(4-trans-hydroxy-cyclohexyl)-(4-trans-methyl-cyclohexanecarbonyl)-amino]-thiophene-2-carboxylic acid] | – | IC50 (Hepatitis C virus, Huh-7, 96 h): > 25 µM
26 | C[C@H]1CC[C@H](C(=O)N(c2cc(C3=CCC(Oc4ccccc4)CC3)sc2C(=O)O)[C@H]2CC[C@H](O)CC2)CC1 (relative stereo) [Compound 33, 3-[(trans-4-hydroxy-cyclohexyl)-(trans-4-methyl-cyclohexanecarbonyl)-amino]-5-(4-phenoxy-cyclohex-1-enyl)-thiophene-2-carboxylic acid] | < 5 | –
27 | CC1CCC(C(=O)N(c2cc(C3=CCCCC3)sc2C(=O)O)C2CCC(C(C)(C)C)CC2)CC1 (stereo not drawn) [Compound 45, 3-[(4-cis-tert-butyl-cyclohexyl)-(4-trans-methyl-cyclohexanecarbonyl)-amino]-5-cyclohex-1-enyl-thiophene-2-carboxylic acid] | – | IC50 [2]: < 5 µM
28 | CCN1CC2(CCC(N(C(=O)C3CCC(C)CC3)c3cc(C4=CCCCC4)sc3C(=O)O)CC2)CC1=O (stereo not drawn) [Compound 130, 5-cyclohex-1-enyl-3-[cis(2-ethyl-3-oxo-2-aza-spiro[4.5]dec-8-yl)-(trans-4-methylcyclohexanecarbonyl)-amino]-thiophene-2-carboxylic acid] | – | IC50 [2]: < 5 µM
